The target of assay [1] is immunoproteasome LMP7/B5i subunit (Homo sapiens, UniProt P20618+P28062). Kind of assay: Caliper-based proteasome enzymatic activity assay, LMP7. Format: biochemical. The note with it: human recombinant immunoproteasome 0.3 nM, FAM-peptide substrate 1 μM, 3 h at rt. The procedure:
(§1) A Caliper-based proteasome assay (Caliper Life Sciences, Hopkinton, Mass.) was used to measure inhibition of the immunoproteasome LMP7/B5i subunit, the immunoproteasome LPM2/β1i subunit, and the constitutive proteasome β5c unit for a compound of Formula (I). For LMP7 and β5c, serial dilutions of test compounds were incubated with either human recombinant immunoprotcasome or constitutive proteasome (0.3 nM enzyme) and a carboxyfluorescein (FAM)-labeled peptide substrate FAM-TYETFKSIMKKSPF-NH2 (1 μM) at it for 3 h. The reaction was then terminated with a buffer containing the known proteasome inhibitor carfilzomib at a concentration of 5 uM. For LMP2, serial dilutions of test compounds were incubated with human recombinant immunoproteasome proteasome (0.3 nM enzyme) and a carboxyfluorescein (FAM)-labeled peptide substrate FAM-[…]-NH2 (1 μM) at rt for 2 h. The reaction was then terminated with a buffer containing the known proteasome inhibitor ixazomib at a concentration of 6.7 uM. The reaction buffer was 20 mM Hepes pH 7.4, 0.01% bovine serum albumin, 0.015% SDS, 0.5 mM EDTA, 1%0/DMSO. The peptide cleavage reaction product was quantified on a Caliper LabChip 3000. Percent inhibition was calculated for each compound dilution and the concentration that produced 50% inhibition was calculated. This value is presented as the IC50.

Assay [2] deals with constitutive proteasome β5c unit (Homo sapiens, UniProt P20618+P28074). Kind of assay: Caliper-based proteasome enzymatic activity assay, β5c. It counts as biochemical. Particulars: human recombinant constitutive proteasome 0.3 nM, FAM-peptide substrate 1 μM, 3 h at rt; read-out: β5c subunit IC50. The procedure: as §1

Molecules are shown by their SMILES.

Broadly, the IC50 is the concentration needed to halve the response being measured. In the case of `CC(C)(C=C(C#N)C(=O)N1CCCC[C@@H]1COC(=O)N[C@@H](Cc1coc2ccccc12)B(O)O)N1CCC(F)(F)C1` [Example 47], the figures for the IC50 in assay [1] and in assay [2] were 1.1 nM and 128 nM, respectively.
In the same order, the values of `CC(C)(C=C(C#N)C(=O)N1C[C@@H]2C[C@@H]2[C@@H]1COC(=O)N[C@@H](Cc1ccc(C(F)(F)F)cc1)B(O)O)N1CCOCC1` [Example 114] are 2.3 nM and 2540 nM.
Taken in the same sequence, the figures for `CC(C)(C=C(C#N)C(=O)N1CCCC[C@@H]1COC(=O)N[C@@H](Cc1ccc(F)cc1)B(O)O)N1CCN(C2COC2)CC1` [Example 127, ((R)-1-(((((R)-1-(2-cyano-4-methyl-4-(4-(oxetan-3-yl)piperazin-1-yl)pent-2-enoyl)piperidin-2-yl)methoxy)carbonyl)amino)-2-(4-fluorophenyl)ethyl)boronic acid] were 5 nM and 900 nM.
In the same order, the values of `CC(C)(C=C(C#N)C(=O)N1CCOC[C@@H]1COC(=O)N[C@@H](Cc1ccccc1)B(O)O)N1CCC(F)(F)C1` [Example 94, ((R)-1-(((((R)-4-(2-cyano-4-(3,3-difluoropyrrolidin-1-yl)-4-methylpent-2-enoyl)morpholin-3-yl)methoxy)carbonyl)amino)-2-phenylethyl)boronic acid] are 2 nM and 1760 nM.
As to `CC#CC(=O)N1C[C@@H]2C[C@@H]2[C@@H]1COC(=O)N[C@@H](Cc1coc2ccccc12)B(O)O` [Example 88, ((R)-2-(benzofuran-3-yl)-1-(((((1S,2R,5R)-3-(but-2-ynoyl)-3-azabicyclo[3.1.0]hexan-2-yl)methoxy)carbonyl)amino)ethyl)boronic acid], the values for the IC50 in assay [1] and in assay [2] were 7.1 nM and 263 nM, respectively.
Taken in the same sequence, the figures for `COc1ccc(C[C@H](NC(=O)OC[C@H]2CCCCN2C(=O)C(C#N)=CC(C)(C)C)B(O)O)cc1` [Example 70, ((R)-1-(((((R)-1-(2-cyano-4,4-dimethylpent-2-enoyl)piperidin-2-yl)methoxy)carbonyl)amino)-2-(4-methoxyphenyl)ethyl)boronic acid] were 6.5 nM and 1840 nM.
As for `CC(C)(C=C(C#N)C(=O)N1CCOC[C@@H]1COC(=O)N[C@@H](CCc1ccccc1)B(O)O)N1CCC(F)(F)C1` [Example 98, ((R)-1-(((((R)-4-(2-cyano-4-(3,3-difluoropyrrolidin-1-yl)-4-methylpent-2-enoyl)morpholin-3-yl)methoxy)carbonyl)amino)-3-phenylpropyl)boronic acid], the IC50 in assay [1] stood at 3.5 nM; in assay [2], 3270 nM.
Taken in the same sequence, the figures for `C=CC(=O)N1CCC(F)(F)C[C@@H]1COC(=O)N[C@@H](Cc1coc2ccccc12)B(O)O` [Example 112, ((R)-1-(((((R)-1-acryloyl-4,4-difluoropiperidin-2-yl)methoxy)carbonyl)amino)-2-(benzofuran-3-yl)ethyl)boronic acid] were 2.5 nM and 95 nM.
Taken in the same sequence, the figures for `Cc1ccc(C[C@H](NC(=O)OC[C@H]2[C@H]3C[C@H]3CN2C(=O)C(C#N)=CC(C)(C)C)B(O)O)cc1` [Example 76] were 1.2 nM and 677 nM.
As for `CC(C)(C=C(C#N)C(=O)N1CCCC[C@@H]1COC(=O)N[C@@H](Cc1ccc(S(C)(=O)=O)cc1)B(O)O)N1CCC(F)(F)C1` [Example 124, ((R)-1-(((((R)-1-(2-cyano-4-(3,3-difluoropyrrolidin-1-yl)-4-methylpent-2-enoyl)piperidin-2-yl)methoxy)carbonyl)amino)-2-(4-(methylsulfonyl)phenyl)ethyl)boronic acid], the IC50 in assay [1] amounted to 2.2 nM; in assay [2], 550 nM.
Turning to `CC(C)(C)C=C(C#N)C(=O)N1CCCC[C@@H]1COC(=O)N[C@@H](CCc1ccccc1)B(O)O` [Example 50, ((R)-1-(((((R)-1-(2-cyano-4,4-dimethylpent-2-enoyl)piperidin-2-yl)methoxy)carbonyl)amino)-3-phenylpropyl)boronic acid], the IC50 is 9.8 nM in assay [1] and more than 5000 nM in assay [2].
In the case of `COc1cccc(C[C@H](NC(=O)OC[C@H]2CCCCN2C(=O)C(C#N)=CC(C)(C)C)B(O)O)c1` [Example 77, ((R)-1-(((((R)-1-(2-cyano-4,4-dimethylpent-2-enoyl)piperidin-2-yl)methoxy)carbonyl)amino)-2-(3-methoxyphenyl)ethyl)boronic acid], the results for the IC50 in assay [1] and in assay [2] were 13 nM and more than 5000 nM, respectively.
In the same order, the values of `CC(C)(C)C=C(C#N)C(=O)N1CCOC[C@@H]1COC(=O)N[C@@H](Cc1ccccc1)B(O)O` [Example 69, ((R)-1-(((((R)-4-(2-cyano-4,4-dimethylpent-2-enoyl)morpholin-3-yl)methoxy)carbonyl)amino)-2-phenylethyl)boronic acid] are 3.2 nM and 670 nM.
In the same order, the values of `CC(C)(C=C(C#N)C(=O)N1C[C@@H]2C[C@@H]2[C@@H]1COC(=O)N[C@@H](Cc1ccc(F)cc1)B(O)O)N1CCOCC1` [Example 123, ((R)-1-(((((1S,2R,5R)-3-(2-cyano-4-methyl-4-morpholinopent-2-enoyl)-3-azabicyclo[3.1.0]hexan-2-yl)methoxy)carbonyl)amino)-2-(4-fluorophenyl)ethyl)boronic acid] are 550 nM and more than 5000 nM.
Taken in the same sequence, the figures for `COc1cccc(C[C@H](NC(=O)OC[C@H]2CCCCN2C(=O)C(C#N)=CC(C)(C)N2CCC(F)(F)C2)B(O)O)c1` [Example 96] were 2.7 nM and more than 5000 nM.
Consider `CC(C)(C)C=C(C#N)C(=O)N1CCOC[C@@H]1COC(=O)N[C@@H](Cc1coc2ccccc12)B(O)O` [Example 43, ((R)-2-(benzofuran-3-yl)-1-(((((R)-4-(2-cyano-4,4-dimethylpent-2-enoyl)morpholin-3-yl)methoxy)carbonyl)amino)ethyl)boronic acid], for which the IC50 in assay [1] is 2 nM; in assay [2], 34 nM.
Regarding `CC(C)(C=C(C#N)C(=O)N1CCCC[C@@H]1COC(=O)N[C@@H](Cc1coc2ccccc12)B(O)O)N1CCN(C2COC2)CC1` [Example 60, ((R)-2-(benzofuran-3-yl)-1-(((((R)-1-(2-cyano-4-methyl-4-(4-(oxetan-3-yl)piperazin-1-yl)pent-2-enoyl)piperidin-2-yl)methoxy)carbonyl)amino)ethyl)boronic acid], the values for the IC50 in assay [1] and in assay [2] were 0.9 nM and 232 nM, respectively.
Taken in the same sequence, the figures for `C=CC(=O)N1C[C@@H]2C[C@@H]2[C@@H]1COC(=O)N[C@@H](Cc1ccccc1)B(O)O` [Example 99, ((R)-1-(((((1S,2R,5R)-3-acryloyl-3-azabicyclo[3.1.0]hexan-2-yl)methoxy)carbonyl)amino)-2-phenylethyl)boronic acid] were 68 nM and 1990 nM.
On to `CC(C)(C=C(C#N)C(=O)N1CCCCC[C@@H]1COC(=O)N[C@@H](Cc1coc2ccccc12)B(O)O)N1CCOCC1` [Example 63, ((R)-2-(benzofuran-3-yl)-1-(((((R)-1-(2-cyano-4-methyl-4-morpholinopent-2-enoyl)-azepan-2-yl)methoxy)carbonyl)amino)ethyl)boronic acid], for which the IC50 stood at 1.4 nM in assay [1] and 230 nM in assay [2].
For `CN(CC(F)(F)F)C(C)(C)C=C(C#N)C(=O)N1CCCC[C@@H]1COC(=O)N[C@@H](Cc1ccccc1)B(O)O` [Example 97, ((R)-1-(((((R)-1-(2-cyano-4-methyl-4-(methyl(2,2,2-trifluoroethyl)amino)pent-2-enoyl)piperidin-2-yl)methoxy)carbonyl)amino)-2-phenylethyl)boronic acid], the IC50 in assay [1] is 5 nM; in assay [2], 3970 nM.
Taken in the same sequence, the figures for `C=CC(=O)N1C[C@@H]2C[C@@H]2[C@@H]1COC(=O)N[C@@H](Cc1ccc(F)cc1)B(O)O` [Example 109, ((R)-1-(((((1S,2R,5R)-3-acryloyl-3-azabicyclo[3.1.0]hexan-2-yl)methoxy)carbonyl)amino)-2-(4-fluorophenyl)ethyl)boronic acid] were 6.4 nM and 3320 nM.
On to `CC(C)(C=C(C#N)C(=O)N1CCCCC[C@H]1COC(=O)N[C@@H](Cc1coc2ccccc12)B(O)O)N1CCC(F)(F)C1` [Example 68, ((R)-2-(benzofuran-3-yl)-1-(((((S)-1-(2-cyano-4-(3,3-difluoropyrrolidin-1-yl)-4-methylpent-2-enoyl)azepan-2-yl)methoxy)carbonyl)amino)ethyl)boronic acid], for which the IC50 worked out at 2.5 nM in assay [1] and 447 nM in assay [2].
Turning to `CC(C)(C=C(C#N)C(=O)N1CC(F)(F)C[C@@H]1COC(=O)N[C@@H](Cc1coc2ccccc12)B(O)O)N1CCOCC1` [Example 56, ((R)-2-(benzofuran-3-yl)-1-(((((R)-1-(2-cyano-4-methyl-4-morpholinopent-2-enoyl)-4,4-difluoropyrrolidin-2-yl)methoxy)carbonyl)amino)ethyl)boronic acid], the IC50 in assay [1] is 1.7 nM; in assay [2] it was 148 nM.

The values above are taken from patent US11154563B2, “Immunoproteasome inhibitors” (Principia Biopharma Inc., priority 2017, dated 2021).
